Laboratory results as given in ChEMBL document CHEMBL5154779, “Exploration of novel phthalazinone derivatives as potential efflux transporter inhibitors for reversing multidrug resistance and improving the oral absorption of paclitaxel” (Eur J Med Chem, 2022).
Counter-ions that a name gives are not always drawn. Active and inactive are the calls of the source. The calls are words filed in the database; no cut-off is given here.

Key:
[1] = tested on: K562; test: Cytotoxicity against human K562 cells after 48 hrs by MTT assay; format: functional, cell-based; conditions: K562, 48 h
[2] = tested on: MDCK; test: Cytotoxicity against dog MDCK cells after 48 hrs by MTT assay; format: functional, cell-based; conditions: Canis lupus familiaris
[3] = Cytotoxicity against dog MDCK-II-BCRP cells after 48 hrs by MTT assay; format: functional, cell-based; conditions: Canis lupus familiaris
[4] = tested on: K562/A02; test: Cytotoxicity against human K562/A02 cells after 48 hrs by MTT assay; format: functional, cell-based; conditions: K562/A02, 48 h
[5] = tested on: A549; test: Antiproliferative activity against human A549 cells highly expressing EGFR after 48 hrs by MTT assay; format: functional, cell-based; conditions: A549, 48 h
[6] = tested on: Caco-2; test: Cytotoxicity against human Caco-2 cells assessed as reduction in cell viability at 50 uM after 48 hrs by MTT assay; format: toxicity, cell-based; conditions: caco-2, 48 h
[7] = target: T1, ATP-dependent translocase ABCB1 (Homo sapiens, UniProt P08183); test: Inhibition of P-gp-mediated multidrug resistance in human K562/A02 cells assessed as adriamycin accumulation at 0.5 to 5 uM pretreated 1.5 hrs followed by treated with adriamycin measured after 4 hrs by flow cytometry analysis; format: cell-based; conditions: k562/a02, 1.5 h, dose 0.5-5 µM
T1 sequence (P08183 whole entry): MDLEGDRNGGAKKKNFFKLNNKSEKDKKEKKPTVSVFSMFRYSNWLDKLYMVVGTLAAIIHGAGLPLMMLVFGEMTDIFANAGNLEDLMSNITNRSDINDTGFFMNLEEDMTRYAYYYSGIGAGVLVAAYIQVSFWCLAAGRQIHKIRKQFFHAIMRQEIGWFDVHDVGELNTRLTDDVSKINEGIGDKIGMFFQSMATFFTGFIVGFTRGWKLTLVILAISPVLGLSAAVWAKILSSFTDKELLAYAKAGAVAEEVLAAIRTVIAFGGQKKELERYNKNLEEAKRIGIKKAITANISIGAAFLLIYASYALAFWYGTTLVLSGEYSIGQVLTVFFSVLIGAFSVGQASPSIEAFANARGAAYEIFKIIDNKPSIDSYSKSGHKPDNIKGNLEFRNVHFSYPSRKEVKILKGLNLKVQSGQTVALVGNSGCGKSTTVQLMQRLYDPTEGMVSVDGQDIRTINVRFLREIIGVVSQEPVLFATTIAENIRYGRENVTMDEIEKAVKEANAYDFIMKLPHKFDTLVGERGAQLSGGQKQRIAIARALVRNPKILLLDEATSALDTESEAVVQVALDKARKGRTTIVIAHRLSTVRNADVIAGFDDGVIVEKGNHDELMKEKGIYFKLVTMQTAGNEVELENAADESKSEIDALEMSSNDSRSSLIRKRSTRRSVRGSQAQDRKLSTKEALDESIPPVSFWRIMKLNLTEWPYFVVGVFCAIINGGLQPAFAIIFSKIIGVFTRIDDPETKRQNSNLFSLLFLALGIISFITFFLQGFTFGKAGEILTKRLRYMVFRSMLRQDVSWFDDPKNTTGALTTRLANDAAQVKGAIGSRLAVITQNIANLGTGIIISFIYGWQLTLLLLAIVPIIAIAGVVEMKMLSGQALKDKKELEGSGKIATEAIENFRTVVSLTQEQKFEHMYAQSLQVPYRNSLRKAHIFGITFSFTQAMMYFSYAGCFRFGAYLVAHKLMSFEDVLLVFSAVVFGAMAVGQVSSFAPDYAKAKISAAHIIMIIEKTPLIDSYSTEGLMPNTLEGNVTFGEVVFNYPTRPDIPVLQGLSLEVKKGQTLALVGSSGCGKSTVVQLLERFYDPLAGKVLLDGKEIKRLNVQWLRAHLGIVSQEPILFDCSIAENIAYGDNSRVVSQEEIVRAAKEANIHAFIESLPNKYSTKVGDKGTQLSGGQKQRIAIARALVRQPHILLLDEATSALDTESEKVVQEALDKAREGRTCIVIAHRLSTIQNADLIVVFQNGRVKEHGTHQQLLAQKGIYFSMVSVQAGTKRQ

[8] = Reversal of BCRP-mediated multidrug resistance in dog MDCK-II-BCRP cells in presence of mitoxantrone after 48 hrs by MTT assay; format: cell-based; conditions: Canis lupus familiaris
[9] = target: T1, ATP-dependent translocase ABCB1; test: Inhibition of P-gp in human K562/A02 cells assessed as rescue of intracellular Rhodamine 123 accumulation at 5 uM incubated for 5 to 120 mins and measured by flow cytometry analysis; format: cell-based; conditions: k562/a02, 5 µM, time 5-120 min
[10] = tested on: MDCK-II-BCRP; test: Inhibition of BCRP-mediated multidrug resistance in dog MDCK-II-BCRP cells assessed as mitoxantrone accumulation at 0.1 to 5 uM pretreated 1.5 hrs followed by treated with mitoxantrone measured after 4 hrs by flow cytometry analysis; format: cell-based; conditions: Canis lupus familiaris, dose 0.1-5 µM
[11] = Reversal of P-gp-mediated multidrug resistance in human K562/A02 cells assessed as potentiation of adriamycin-induced cytotoxicity at 0.04 uM by measuring adriamycin IC50 after 48 hrs by MTT assay
[12] = target: T2, Broad substrate specificity ATP-binding cassette transporter ABCG2 (Homo sapiens, UniProt Q9UNQ0); test: Inhibition of BCRP (unknown origin)
T2 sequence (Q9UNQ0 whole entry): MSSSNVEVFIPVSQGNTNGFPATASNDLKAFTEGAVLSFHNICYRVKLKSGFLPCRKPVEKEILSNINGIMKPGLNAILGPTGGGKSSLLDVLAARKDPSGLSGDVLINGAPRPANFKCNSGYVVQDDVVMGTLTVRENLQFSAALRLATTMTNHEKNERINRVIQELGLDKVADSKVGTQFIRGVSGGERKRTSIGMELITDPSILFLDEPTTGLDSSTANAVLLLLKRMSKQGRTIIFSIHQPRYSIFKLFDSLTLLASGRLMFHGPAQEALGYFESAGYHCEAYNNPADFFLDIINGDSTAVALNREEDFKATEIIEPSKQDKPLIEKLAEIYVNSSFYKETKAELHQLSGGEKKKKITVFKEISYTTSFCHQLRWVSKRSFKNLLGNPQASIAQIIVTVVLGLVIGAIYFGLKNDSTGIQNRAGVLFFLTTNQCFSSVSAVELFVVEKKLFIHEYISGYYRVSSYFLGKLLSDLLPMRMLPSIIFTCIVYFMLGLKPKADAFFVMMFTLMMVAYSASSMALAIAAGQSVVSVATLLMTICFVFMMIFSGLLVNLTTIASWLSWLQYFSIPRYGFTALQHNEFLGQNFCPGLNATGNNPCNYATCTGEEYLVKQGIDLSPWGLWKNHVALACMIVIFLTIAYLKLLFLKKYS

[13] = target: T1, ATP-dependent translocase ABCB1; test: Inhibition of P-gp (unknown origin)
[14] = AUC (0 to t) in male Sprague-Dawley rat at 20 mg/kg,po pretreated with 3-4-chloropheny1-N-4-2-morpholinoethylpheny1-4-oxo-3,4-dihydrophthalazine-1-carboxamide at 10 mg/kg measured by LC/MS analysis; format: ADME, organism-based; design: dose 20 mg/kg, route po; conditions: in vivo
[15] = Cmax in male Sprague-Dawley rat at 20 mg/kg,po pretreated with 3-4-chloropheny1-N-4-2-morpholinoethylpheny1-4-oxo-3,4-dihydrophthalazine-1-carboxamide at 10 mg/kg measured by LC/MS analysis; format: ADME, organism-based; design: dose 20 mg/kg, route po; conditions: in vivo
[16] = Apparent permeability of compound in human Caco-2 cells from basal to apical after 180 mins by LC-MS/MS analysis; format: ADME, cell-based
[17] = Apparent permeability of compound in human Caco-2 cells from apical to basal after 30 mins by LC-MS/MS analysis; format: ADME, cell-based
[18] = Tmax in male Sprague-Dawley rat at 20 mg/kg,po measured by LC/MS analysis; format: ADME, organism-based; conditions: in vivo
[19] = Apparent permeability of compound in human Caco-2 cells from basal to apical after 120 mins by LC-MS/MS analysis; format: ADME, cell-based
[20] = Apparent permeability of compound in human Caco-2 cells from basal to apical after 30 mins by LC-MS/MS analysis; format: ADME, cell-based
[21] = Apparent permeability of compound in human Caco-2 cells from basal to apical after 60 mins by LC-MS/MS analysis; format: ADME, cell-based
[22] = Apparent permeability of compound in human Caco-2 cells from basal to apical after 90 mins by LC-MS/MS analysis; format: ADME, cell-based
[23] = Apparent permeability of compound in human Caco-2 cells from apical to basal after 60 mins by LC-MS/MS analysis; format: ADME, cell-based
[24] = tested on: Caco-2; test: Cytotoxicity against human Caco-2 cells assessed as reduction in cell viability at 30 uM after 48 hrs by MTT assay; format: toxicity, cell-based; conditions: caco-2, 48 h
[25] = Apparent oral clearance in male Sprague-Dawley rat at 20 mg/kg,po pretreated with 3-4-chloropheny1-N-4-2-morpholinoethylpheny1-4-oxo-3,4-dihydrophthalazine-1-carboxamide at 10 mg/kg measured by LC/MS analysis; format: ADME, organism-based; conditions: in vivo
[26] = Bioavailability in male Sprague-Dawley rat at 5 mg/kg,iv measured by LC/MS analysis; format: ADME, organism-based; conditions: in vivo
[27] = Tmax in male Sprague-Dawley rat at 20 mg/kg,po pretreated with 3-4-chloropheny1-N-4-2-morpholinoethylpheny1-4-oxo-3,4-dihydrophthalazine-1-carboxamide at 10 mg/kg measured by LC/MS analysis; format: ADME, organism-based; conditions: in vivo
[28] = Apparent oral volume of distribution in male Sprague-Dawley rat at 20 mg/kg,po pretreated with 3-4-chloropheny1-N-4-2-morpholinoethylpheny1-4-oxo-3,4-dihydrophthalazine-1-carboxamide at 10 mg/kg measured by LC/MS analysis; format: ADME, organism-based; conditions: in vivo
[29] = Apparent permeability of compound in human Caco-2 cells from apical to basal after 180 mins by LC-MS/MS analysis; format: ADME, cell-based
[30] = Oral bioavailability in male Sprague-Dawley rat at 20 mg/kg,po pretreated with 3-4-chloropheny1-N-4-2-morpholinoethylpheny1-4-oxo-3,4-dihydrophthalazine-1-carboxamide at 10 mg/kg measured by LC/MS analysis; format: ADME, organism-based; conditions: in vivo
[31] = Apparent permeability of compound in human Caco-2 cells from apical to basal after 120 mins by LC-MS/MS analysis; format: ADME, cell-based
[32] = in vivo; conditions: male, Sprague-Dawley, rat, po, 20 mg/kg
[33] = Apparent permeability of compound in human Caco-2 cells from apical to basal after 90 mins by LC-MS/MS analysis; format: ADME, cell-based
[34] = Cmax in male Sprague-Dawley rat at 20 mg/kg,po measured by LC/MS analysis; format: ADME, organism-based; design: dose 20 mg/kg, route po; conditions: in vivo

O=C(Nc1ccc(CCN2CCc3ccccc3C2)cc1)c1nn(-c2ccc(Cl)cc2)c(=O)c2ccccc12
IC50 [1]: > 100 µM
IC50 [2]: > 100 µM
IC50 [3]: > 100 µM
IC50 [4]: > 100 µM
IC50 [5]: > 100 µM

COc1cc2c(cc1OC)CN(CCc1ccc(NC(=O)c3cc(OC)c(OC)cc3NC(=O)c3cnc4ccccc4c3)cc1)CC2
IC50 [2]: > 100 µM
IC50 [3]: > 100 µM

O=C(Nc1ccc(CCN2CCOCC2)cc1)c1nn(-c2ccc(Cl)cc2)c(=O)c2ccccc12
Activity [6]: < 20%
inhibition (INH) [7]: Active
EC50 [8]: 0.0982 µM
inhibition (INH) [9]: Active
IC50 [1]: 72.8 µM
inhibition [10]: Active
IC50 [2]: 87.7 µM
IC50 [11]: 7232 µM
IC50 [3]: 81.2 µM
IC50 [4]: 43.3 µM

COc1ccc(CCN(C)CCCC(C#N)(c2ccc(OC)c(OC)c2)C(C)C)cc1OC (stereo not given)
inhibition (INH) [9]: Active
IC50 [4]: 39.9 µM

O=C(NCCc1cccc(Cl)c1)c1nn(-c2ccc(Cl)cc2)c(=O)c2ccccc12
IC50 [1]: > 100 µM
IC50 [2]: > 100 µM
IC50 [3]: 51.4 µM
IC50 [4]: > 100 µM
IC50 [5]: > 100 µM

O=C(Nc1ccc(N2CCOCC2)cc1)c1nn(-c2ccc(Cl)cc2)c(=O)c2ccccc12
IC50 [1]: > 100 µM
IC50 [2]: > 100 µM
IC50 [3]: > 100 µM
IC50 [4]: > 100 µM
IC50 [5]: > 100 µM

CS(=O)(=O)CCNCc1ccc(-c2ccc3ncnc(Nc4ccc(OCc5cccc(F)c5)c(Cl)c4)c3c2)o1 [LAPATINIB]
EC50 [12]: 3.2 µM
EC50 [13]: > 2.79 µM

COc1ccc2c3c([nH]c2c1)[C@H](CC(C)C)N1C(=O)[C@H](CCC(=O)OC(C)(C)C)NC(=O)[C@@H]1C3
IC50 [2]: 93.3 µM
IC50 [3]: > 100 µM

CC(=O)O[C@H]1C(=O)[C@@]2(C)[C@H]([C@H](OC(=O)c3ccccc3)[C@]3(O)C[C@H](OC(=O)[C@H](O)[C@@H](NC(=O)c4ccccc4)c4ccccc4)C(C)=C1C3(C)C)[C@]1(OC(C)=O)CO[C@@H]1C[C@@H]2O [PACLITAXEL]
AUC(0-t) [14]: 3130 ng·h/mL
Cmax [15]: 652 ng/mL
Papp B→A at 3 h [16]: 19.4 ×10⁻⁶ cm/s
Papp A→B at 0.5 h [17]: 0.09 ×10⁻⁶ cm/s
Tmax [18]: 2 h
Papp B→A at 2 h [19]: 11.1 ×10⁻⁶ cm/s
Papp B→A at 0.5 h [20]: 1.29 ×10⁻⁶ cm/s
Papp B→A at 1 h [21]: 2.5 ×10⁻⁶ cm/s
Papp B→A at 1.5 h [22]: 5.85 ×10⁻⁶ cm/s
Papp A→B at 1 h [23]: 1.02 ×10⁻⁶ cm/s
Activity [24]: < 20%
CL/F [25]: 103 mL/min
F [26]: 100%
Tmax [27]: 2.51 h
Vd/F [28]: 16 L
Papp A→B at 3 h [29]: 2.69 ×10⁻⁶ cm/s
bioavailability [30]: 45.1%
Papp A→B at 2 h [31]: 2.42 ×10⁻⁶ cm/s
half-life [32]: 1.68 h
Papp A→B at 1.5 h [33]: 1.98 ×10⁻⁶ cm/s
Cmax [34]: 112 ng/mL

C#Cc1cccc(Nc2ncnc3cc(OCCOC)c(OCCOC)cc23)c1 [ERLOTINIB]
EC50 [12]: 0.17 µM
EC50 [13]: > 4.93 µM

O=C(NCCc1ccccc1)c1nn(-c2ccc(Cl)cc2)c(=O)c2ccccc12
IC50 [1]: > 100 µM
IC50 [2]: > 100 µM
IC50 [3]: 97.3 µM
IC50 [4]: > 100 µM
IC50 [5]: 43.5 µM

O=C(NCCCN1CCOCC1)c1nn(-c2ccc(Cl)cc2)c(=O)c2ccccc12
IC50 [1]: > 100 µM
IC50 [2]: > 100 µM
IC50 [3]: > 100 µM
IC50 [4]: > 100 µM
IC50 [5]: 73.4 µM

COc1ccc(CCNC(=O)c2nn(-c3ccc(Cl)cc3)c(=O)c3ccccc23)cc1OC
IC50 [1]: > 100 µM
IC50 [2]: > 100 µM
IC50 [3]: > 100 µM
IC50 [4]: > 100 µM
IC50 [5]: > 100 µM

O=C(NCCN1CCOCC1)c1nn(-c2ccc(Cl)cc2)c(=O)c2ccccc12
IC50 [1]: > 100 µM
IC50 [2]: > 100 µM
IC50 [3]: > 100 µM
IC50 [4]: > 100 µM
IC50 [5]: > 100 µM

COc1cc2ncnc(Nc3ccc(F)c(Cl)c3)c2cc1OCCCN1CCOCC1 [GEFITINIB]
inhibition (INH) [9]: Active
EC50 [13]: > 1 µM

O=C(NCCc1cccc(F)c1)c1nn(-c2ccc(Cl)cc2)c(=O)c2ccccc12
IC50 [1]: > 100 µM
IC50 [2]: > 100 µM
IC50 [3]: > 100 µM
IC50 [4]: > 100 µM
IC50 [5]: 69.1 µM

COc1cccc2c1C(=O)c1c(O)c3c(c(O)c1C2=O)C[C@@](O)(C(=O)CO)C[C@@H]3O[C@H]1C[C@H](N)[C@H](O)[C@H](C)O1 [DOXORUBICIN HYDROCHLORIDE]
IC50 [1]: 0.92 µM
IC50 [4]: 78.3 µM
